According to article PMC3422278 (2012):

Key:
[1] = test system: Pu27 (DNA, G4) TGGGGAGGGTGGGGAGGGTGGGGAAGG; assay: PCR stop assay (Taq polymerase); details: 1x PCR buffer, extension 72 °C, indirect
[2] = test system: Pu24I (DNA, G4, inosine at 10 (G-to-I)) TGAGGGTGGGGAGGGTGGGGAAGG; assay: 1H NMR titration (imino proton shifts); details: 150 mM KCl, 25 mM KH2PO4; 1 mM EDTA, pH 7.0, 298 K, 90% H2O/10% D2O; 1.0 mM DNA

binding ([1]; inhibition only at higher concentration (500 µM))	binding [2]	binding ([1]; 10 µM oligomers, complementary primer, effect at 125 µM, 250 µM)	SMILES
weak	–	–	COc1cc(NC(=O)Nc2nc3c(s2)C[C@]2(C)CC[C@@H]4[C@H](OC(=O)[C@H]4C)[C@H]2[C@@H]3C)cc(OC)c1
–	yes	weak	C[C@@H]1C(=O)O[C@H]2[C@H]1CC[C@@]1(C)Cc3sc(NC(=O)Nc4ccc(Oc5ccccc5)cc4)nc3[C@@H](C)[C@H]21
